The term IC50 denotes the concentration that inhibits the measured activity by half.

In patent US7268128B2, “1,3,5-trisubstituted-5-phenyl and 5-pyridyl pyrazolopyrimidinone derivatives having PDE7 inhibiting action” (Ausbio Pharma Co., Ltd., priority 2001, dated 2007) one finds IC50 data, which are given here for 12 compounds.

This assay deals with T1, PDE7 (type VII phosphodiesterase) (Homo sapiens, UniProt Q13946).
T1 construct: endogenous in cells; host or cells: MOLT-4 (ATCC CRL-1582), soluble fraction, HiTrapQ anion-exchange fraction
As to the kind of experiment: PDE7 inhibiting activity (3H-cAMP hydrolysis, active fraction from MOLT-4 cells). Format: biochemical. The settings on record: PDE7 fraction from MOLT-4 cells, 0.064 μM cAMP, 10 μM rolipram present, 2 hours at 25° C.; read-out: IC50 values for phosphodiesterase inhibiting activities (PDE7). In short, it runs like this: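 Read-out: supernatant radioactivity after twice-repeated QAE-Sephadex treatment of a 2 h, 25° C reaction (3H-cAMP at 0.064 μM cAMP, 10 μM rolipram, 5′-nucleotidase, 1 mM MgCl2, pH 7.5). Enzyme is an anion-exchange-purified fraction from MOLT-4 T cells. IC50 taken as half-maximal inhibition.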

T1 sequence (Q13946 whole entry): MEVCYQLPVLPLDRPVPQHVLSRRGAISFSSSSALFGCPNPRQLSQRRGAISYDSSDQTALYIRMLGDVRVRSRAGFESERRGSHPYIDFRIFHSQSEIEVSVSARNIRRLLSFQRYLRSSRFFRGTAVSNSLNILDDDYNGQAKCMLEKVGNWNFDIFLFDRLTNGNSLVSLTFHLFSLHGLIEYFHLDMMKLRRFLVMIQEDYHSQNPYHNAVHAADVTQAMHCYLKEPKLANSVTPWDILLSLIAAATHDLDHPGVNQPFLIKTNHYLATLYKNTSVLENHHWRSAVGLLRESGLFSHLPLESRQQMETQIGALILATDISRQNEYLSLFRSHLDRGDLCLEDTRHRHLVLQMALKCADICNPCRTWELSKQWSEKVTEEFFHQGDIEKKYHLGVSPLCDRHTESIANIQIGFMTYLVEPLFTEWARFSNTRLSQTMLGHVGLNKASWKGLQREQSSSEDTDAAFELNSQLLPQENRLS

As for `COc1cc(N2CCSCC2)ccc1-c1nc2c(c(C3CCCCC3)nn2C)c(=O)[nH]1` [Example 176, 3-Cyclohexyl-6-[2-methoxy-4-(4-thiomorpholinyl)phenyl]-1-methyl-1,5-dihydro-4H-pyrazolo[3,4-d]pyrimidin-4-one], the IC50 is ≤ 1000 nM.

With `CN1CCN(c2ccc(-c3nc4c(c(C5CCCCC5)nn4C)c(=O)[nH]3)cc2)CC1` [Example 179, 3-Cyclohexyl-1-methyl-6-[4-(4-methyl-1-piperazinyl)phenyl]-1,5-dihydro-4H-pyrazolo[3,4-d]pyrimidin-4-one monomethanesulfonate], the IC50 is ≤ 1000 nM.

With `COc1cc(N2CCC(N)CC2)ccc1-c1nc2c(c(C3CCCCC3)nn2C)c(=O)[nH]1` [Example 185, 6-[4-(4-Amino-1-piperidinyl)-2-methoxyphenyl]-3-cyclohexyl-1-methyl-1,5-dihydro-4H-pyrazolo[3,4-d]pyrimidin-4-one monomethanesulfonate], the IC50 was ≤ 10 nM.

As to `CNC1CCN(c2ccc(-c3nc4c(c(C5CCCCC5)nn4C)c(=O)[nH]3)cc2)CC1` [Example 189, 3-Cyclohexyl-1-methyl-6-{4-[4-(methylamino)-1-piperidinyl]phenyl}-1,5-dihydro-4H-pyrazolo[3,4-d]pyrimidin-4-one monomethanesulfonate], the IC50 was ≤ 1000 nM.

On to `COc1cc(S(=O)(=O)N2CCS(=O)(=O)CC2)ccc1-c1nc2c(c(C3CCCCC3)nn2C)c(=O)[nH]1` [Example 191, 3-Cyclohexyl-6-{4-[(1,1-dioxido-4-thiomorpholinyl)sulfonyl]-2-methoxyphenyl}-1-methyl-1,5-dihydro-4H-pyrazolo[3,4-d]pyrimidin-4-one], for which the IC50 was ≤ 1000 nM.

`COc1cc(N2CCS(=O)(=O)CC2)ccc1-c1nc2c(c(C3CCCCC3)nn2C)c(=O)[nH]1` [Example 192, 3-Cyclohexyl-6-[4-(1,1-dioxido-4-thiomorpholinyl)-2-methoxyphenyl]-1-methyl-1,5-dihydro-4H-pyrazolo[3,4-d]pyrimidin-4-one]: the IC50 was ≤ 10 nM.

With `CCn1nc(C2CCCCC2)c2c(=O)[nH]c(-c3ccc(N4CCN(C)CC4)cc3OC)nc21` [Example 194, 3-Cyclohexyl-1-ethyl-6-[2-methoxy-4-(4-methyl-1-piperazinyl)phenyl]-1,5-dihydro-4H-pyrazolo[3,4-d]pyrimidin-4-one], the IC50 is ≤ 1000 nM.

Take `CCn1nc(C2CCCCC2)c2c(=O)[nH]c(-c3ccc(N4CCC(NC)CC4)cc3OC)nc21` [Example 196]: the IC50 was ≤ 1000 nM.

Turning to `COc1cc(S(=O)(=O)N2CCCN(C)CC2)ccc1-c1nc2c(C)nn(C3CCCCC3)c2c(=O)[nH]1` [Example 198, 1-Cyclohexyl-5-{2-methoxy-4-[(4-methyl-1,4-diazepan-1-yl)sulfonyl]phenyl}-3-methyl-1,6-dihydro-7H-pyrazolo[4,3-d]pyrimidin-7-one], the IC50 was ≤ 1000 nM.

For `COc1cc(S(=O)(=O)N2CCC(O)CC2)ccc1-c1nc2c(C)nn(C3CCCCC3)c2c(=O)[nH]1` [Example 199, 1-Cyclohexyl-5-{4-[(4-hydroxy-1-piperidinyl)sulfonyl]-2-methoxyphenyl}-3-methyl-1,6-dihydro-7H-pyrazolo[4,3-d]pyrimidin-7-one], the IC50 was ≤ 1000 nM.

`COc1cc(S(=O)(=O)NCCO)ccc1-c1nc2c(C)nn(C3CCCCC3)c2c(=O)[nH]1` [Example 200, 4-(1-Cyclohexyl-3-methyl-7-oxo-6,7-dihydro-1H-pyrazolo[4,3-d]pyrimidin-5-yl)-N-(2-hydroxyethyl)-3-methoxybenzenesulfonamide]: the IC50 was ≤ 1000 nM.

With `CNS(=O)(=O)c1ccc(-c2nc3c(C)nn(C4CCCCC4)c3c(=O)[nH]2)c(OC)c1` [Example 201, 4-(1-Cyclohexyl-3-methyl-7-oxo-6,7-dihydro-1H-pyrazolo[4,3-d]pyrimidin-5-yl)-3-methoxy-N-methylbenzenesulfonamide], the IC50 is ≤ 1000 nM.
